According to patent US6774126B2, “Pyrrolo[1,2-b][1,2,4]oxadiazine diones useful as nitric oxide synthase inhibitors” (Pharmacia Corporation, priority 1998, dated 2004):

System: plasma nitrites induced by endotoxin (LPS)
Experiment: In Vivo Assay: Low Dose LPS, plasma nitrites in endotoxin-treated mice
Details: LPS 12.5 mg/kg i.p., plasma nitrites 5 hours post-treatment
Procedure: In Vivo Assay Mice were treated with an intraperitoneal injection of 12.5 mg/kg of endotoxin (LPS) with or without oral administration of the nitric oxide synthase inhibitors. Plasma nitrites were measured 5 hours post-treatment.

SMILES | Low Dose LPS in vivo, inhibition of rise in plasma nitrites (compound 1 mg/kg p.o.) | Low Dose LPS in vivo, inhibition of rise in plasma nitrites (compound 10 mg/kg p.o.) | Low Dose LPS in vivo, inhibition of rise in plasma nitrites (compound 3 mg/kg p.o.)
O=c1onc2n1CCCCC2 [Example 1, 6,7,8,9-tetrahydro-3H,5H-[1,2,4]oxadiazolo[4,3-a]azepin-3-one] | 23% inh. | 72% inh. | –
NCCC1CCCCc2noc(=O)n21 (stereo not shown) [Example 3, 5-(2-aminoethyl)-6,7,8,9-tetrahydro-3H,5H-[1,2,4]oxadiazolo[4,3-a]azepin-3-one, mono(trifluoroacetate)] | – | 64% inh. | 33% inh.
